Experimental data reported in US20250353857A1, “COMPOUND ACTIVE AS INHIBITOR OF COLONY STIMULATION FACTOR-1 RECEPTOR (CSF-1 R)” (priority 2022, published 2025).

molecular target: CSF1R (Homo sapiens (Human), UniProt P07333); test: CSF1R enzymatic inhibitory assay (Invitrogen Z'-LYTE, FRET); format: biochemical; settings: Z'-LYTE assay, ATP concentration equal to Km, average of at least 2 titration curves; read-out: CSF1R (IC50);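 note: kinase phosphorylates a tyrosine on a coumarin/fluorescein FRET peptide, a protease cuts peptide left unphosphorylated, inhibition quantified from the donor-to-acceptor emission ratio with excitation at 400 nm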
Sequence (P07333 20-972): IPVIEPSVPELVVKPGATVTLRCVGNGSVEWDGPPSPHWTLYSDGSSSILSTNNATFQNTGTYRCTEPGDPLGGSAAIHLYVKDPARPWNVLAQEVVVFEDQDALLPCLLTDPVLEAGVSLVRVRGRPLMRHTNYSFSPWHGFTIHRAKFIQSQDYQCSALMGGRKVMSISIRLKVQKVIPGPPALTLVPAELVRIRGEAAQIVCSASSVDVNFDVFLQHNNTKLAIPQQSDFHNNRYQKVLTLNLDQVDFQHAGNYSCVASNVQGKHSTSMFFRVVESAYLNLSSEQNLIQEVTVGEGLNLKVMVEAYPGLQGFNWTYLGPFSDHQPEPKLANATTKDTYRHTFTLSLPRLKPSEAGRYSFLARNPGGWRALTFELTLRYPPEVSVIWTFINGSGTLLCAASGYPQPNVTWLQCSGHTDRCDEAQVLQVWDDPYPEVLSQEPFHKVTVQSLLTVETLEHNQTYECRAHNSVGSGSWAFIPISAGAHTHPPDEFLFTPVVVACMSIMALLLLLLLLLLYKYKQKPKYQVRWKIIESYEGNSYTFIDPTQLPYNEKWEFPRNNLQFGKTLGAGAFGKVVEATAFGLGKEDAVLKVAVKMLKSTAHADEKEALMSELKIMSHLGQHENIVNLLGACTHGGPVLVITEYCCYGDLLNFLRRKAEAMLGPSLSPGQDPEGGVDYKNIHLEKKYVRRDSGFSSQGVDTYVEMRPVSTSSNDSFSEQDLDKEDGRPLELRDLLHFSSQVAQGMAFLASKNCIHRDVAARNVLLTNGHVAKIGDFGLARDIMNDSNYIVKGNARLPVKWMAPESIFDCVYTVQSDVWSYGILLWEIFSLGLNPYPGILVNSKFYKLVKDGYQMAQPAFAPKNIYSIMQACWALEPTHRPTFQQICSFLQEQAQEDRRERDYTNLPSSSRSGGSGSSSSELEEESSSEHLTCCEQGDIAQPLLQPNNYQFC

Structure (SMILES)	IC50
CN(Cc1ccccc1)c1ncnc2sc(-c3ccc(CO)cc3)cc12 [BAHO-3-107, (4-(4-(Benzyl(methyl)amino)thieno[2,3-d]pyrimidin-6-yl)phenyl)methanol]	707 ± 79 nM
Cc1cccc(CN(C)c2ccnc3[nH]ccc23)c1 [CJ1_78]	> 500 nM
CC(C)N(Cc1ccccc1)c1ncnc2[nH]c(-c3ccc(CO)cc3)nc12 [EH02-21, (4-(6-(Benzyl(isopropyl)amino)-9H-purin-8-yl)phenyl)methanol]	> 1000 nM
CCN(Cc1ccccc1)c1ncnc2[nH]c(-c3ccc(OC)cc3)nc12 [EH-93, N-Benzyl-N-ethyl-8-(4-methoxyphenyl)-9H-purin-6-amine]	> 50 nM
Cc1cccc(CN(C)c2ncnc3[nH]c(-c4ccc(-c5nnn[nH]5)cc4)cc23)c1 [FAB 02-14, 6-(4-(1H-Tetrazol-5-yl)phenyl)-N-methyl-N-(3-methylbenzyl)-7H-pyrrolo[2,3-d]pyrimidin-4-amine]	3 nM
COc1ccc(-c2cc3c(NCc4ccccc4)ncnc3[nH]2)cc1 [JK-356, N-Benzyl-6-(4-methoxyphenyl)-7H-pyrrolo[2,3-d]pyrimidin-4-amine]	6.2 ± 0.4 nM
Oc1ccc(-c2cc3c(NCc4ccccc4)ncnc3[nH]2)cc1 [JK-367, 4-(4-(Benzylamino)-7H-pyrrolo[2,3-d]pyrimidin-6-yl)phenol]	> 200 nM
CCOc1ccccc1-c1nc2c(N(C)Cc3ccccc3)ncnc2[nH]1 [JKS01-057, N-Benzyl-8-(2-ethoxyphenyl)-N-methyl-9H-purin-6-amine]	> 1000 nM
C[C@H](c1ccccc1)N(C)c1ncnc2[nH]c(-c3ccccc3)cc12 [KUL01-093, (R)—N-Methyl-6-phenyl-N-(1-phenylethyl)-7H-pyrrolo[2,3-d]pyrimidin-4-amine]	54 ± 5 nM
OCC(O)(CO)c1ccc(-c2cc3c(N4CCCC4C4CCOCC4)ncnc3[nH]2)cc1 (centres unmarked) [LR-2-052-2]	3 nM
Cc1cccc(CN(C)c2ncnc3[nH]c(-c4ccc(C5(O)COC5)cc4)cc23)c1 [LR-2-060-1, 3-(4-(4-(Methyl(3-methylbenzyl)amino)-7H-pyrrolo[2,3-d]pyrimidin-6-yl)phenyl)oxetan-3-ol]	0.3 nM
Cc1cccc(CN(C)c2ncnc3[nH]c(-c4ccc(C(O)(CO)CO)cc4)cc23)c1 [LR-2-060-2, 2-(4-(4-(Methyl(3-methylbenzyl)amino)-7H-pyrrolo[2,3-d]pyrimidin-6-yl)phenyl)propane-1,2,3-triol]	3 nM
OC1(c2ccc(-c3cc4c(N5CCCC5C5CCOCC5)ncnc4[nH]3)cc2)COC1 (centres unmarked) [LR-2-067]	3 nM
CN(Cc1cccc(Cl)c1)c1ncnc2[nH]c(-c3ccc(CN4CCOCC4)cc3)cc12 [LR-2-088 (3), N-(3-Chlorobenzyl)-N-methyl-6-(4-(morpholinomethyl)phenyl)-7H-pyrrolo[2,3-d]pyrimidin-4-amine]	0.9 ± 0.9 nM
CN(Cc1ccccc1Cl)c1ncnc2[nH]c(-c3ccc(CN4CCOCC4)cc3)cc12 [LR-2-091 (2), N-(2-Chlorobenzyl)-N-methyl-6-(4-(morpholinomethyl)phenyl)-7H-pyrrolo[2,3-d]pyrimidin-4-amine]	1.4 ± 0.2 nM
CN(Cc1c(Cl)cccc1Cl)c1ncnc2[nH]c(-c3ccc(CN4CCOCC4)cc3)cc12 [LR-2-094 (2), N-(2,6-Dichlorobenzyl)-N-methyl-6-(4-(morpholinomethyl)phenyl)-7H-pyrrolo[2,3-d]pyrimidin-4-amine]	8.7 ± 1.1 nM
Cc1cccc(CN(C)c2ncnc3[nH]c(-c4cnn(C(C)C)c4)cc23)c1 [LR-2-108, 6-(1-Isopropyl-1H-pyrazol-4-yl)-N-methyl-N-(3-methylbenzyl)-7H-pyrrolo[2,3-d]pyrimidin-4-amine]	0.4 ± 0.3 nM
Cc1cccc(CN(C)c2ncnc3[nH]c(-c4ccc(P(C)(C)=O)cc4)cc23)c1 [LR-2-116, Dimethyl(4-(4-(methyl(3-methylbenzyl)amino)-7H-pyrrolo[2,3-d]pyrimidin-6-yl)phenyl)phosphine oxide]	< 0.2 nM
CN(Cc1cc(Cl)ccc1Cl)c1ncnc2[nH]c(-c3ccc(CN4CCOCC4)cc3)cc12 [LR-2-123, N-(2,5-Dichlorobenzyl)-N-methyl-6-(4-(morpholinomethyl)phenyl)-7H-pyrrolo[2,3-d]pyrimidin-4-amine]	2.7 ± 0.4 nM
COc1ccc(-c2cc3c(N4CCCC4C)ncnc3[nH]2)cc1 (centres unmarked) [MS1-60-134, 6-(4-Methoxyphenyl)-4-(2-methylpyrrolidin-1-yl)-7H-pyrrolo[2,3-d]pyrimidine]	0.7 ± 0.1 nM
COc1ccc(-c2cc3c(N4CCCC4)ncnc3[nH]2)cc1 [MS-46-93, 6-(4-Methoxyphenyl)-4-(pyrrolidin-1-yl)-7H-pyrrolo[2,3-d]pyrimidine]	1.1 ± 0.1 nM
Cc1ccc(F)c(CN(C)c2ncnc3[nH]c(-c4ccccc4)cc23)c1F [SH-01-126, N-(2,6-Difluoro-3-methylbenzyl)-N-methyl-6-phenyl-7H-pyrrolo[2,3-d]pyrimidin-4-amine]	9.1 ± 1.1 nM
CN(Cc1c(F)cccc1F)c1ncnc2[nH]c(-c3ccccc3)cc12 [SH-01-127, N-(2,6-Difluorobenzyl)-N-methyl-6-phenyl-7H-pyrrolo[2,3-d]pyrimidin-4-amine]	9.2 ± 3.3 nM
Cc1ccc(F)c(CN(C)c2ncnc3[nH]c(-c4ccc(CN5CCOCC5)cc4)cc23)c1F [SH-01-128, N-(2,6-Difluoro-3-methylbenzyl)-N-methyl-6-(4-(morpholinomethyl)phenyl)-7H-pyrrolo[2,3-d]pyrimidin-4-amine]	0.8 nM

Structure (SMILES)	IC50
CN(Cc1c(F)cccc1F)c1ncnc2[nH]c(-c3ccc(CN4CCOCC4)cc3)cc12 [SH-01-129, N-(2,6-Difluorobenzyl)-N-methyl-6-(4-(morpholinomethyl)phenyl)-7H-pyrrolo[2,3-d]pyrimidin-4-amine]	1.2 nM
CN(Cc1ccccc1F)c1ncnc2[nH]c(-c3ccc(CO)cc3)nc12 [TIA02-130, N-Methyl-N-(2-fluorobenzyl)-8-(4-(hydroxymethyl)phenyl)-9H-purin-6-amine]	2.3 ± 0.2 nM
CN(Cc1cccc(F)c1)c1ncnc2[nH]c(-c3ccc(CO)cc3)nc12 [TIA02-132, N-Methyl-N-(3-fluorobenzyl)-8-(4-(hydroxymethyl)phenyl)-9H-purin-6-amine]	3.5 ± 2.2 nM
CN(Cc1ccccn1)c1ncnc2[nH]c(-c3ccc(CO)cc3)nc12 [TIA02-164, N-Methyl-N-(pyridin-2-ylmethyl)-8-(4-(hydroxymethyl)phenyl)-9H-purin-6-amine]	11 ± 3 nM
Cc1ccc(CN(C)c2ncnc3[nH]c(-c4ccc(CO)cc4)nc23)cc1 [TIA02-174, N-Methyl-N-(4-methylbenzyl)-8-(4-(hydroxymethyl)phenyl)-9H-purin-6-amine]	12 ± 1 nM
COc1cccc(CN(C)c2ncnc3[nH]c(-c4ccc(CO)cc4)nc23)c1 [TIA03-014, N-(3-Methoxybenzyl)-N-methyl-8-(4-(hydroxymethyl)phenyl)-9H-purin-6-amine]	2.7 ± 0.1 nM
CN(Cc1cccnc1)c1ncnc2[nH]c(-c3ccc(CO)cc3)nc12 [TIA03-016, N-Methyl-N-(pyridin-3-ylmethyl)-8-(4-(hydroxymethyl)phenyl)-9H-purin-6-amine]	3.8 ± 0.4 nM
CN(Cc1cccs1)c1ncnc2[nH]c(-c3ccc(CO)cc3)nc12 [TIA03-066, N-Methyl-N-(thiophen-2-ylmethyl)-8-(4-(hydroxymethyl)phenyl)-9H-purin-6-amine]	3 ± 0.6 nM
COc1ccc(CN(C)c2ncnc3[nH]c(-c4ccc(CO)cc4)nc23)cc1 [TIA03-078, N-(4-Methoxybenzyl)-N-methyl-8-(4-(hydroxymethyl)phenyl)-9H-purin-6-amine]	61 ± 3 nM
COc1ccc(CN(C)c2ncnc3[nH]c(-c4ccc(CO)cc4)nc23)cc1OC [TIA03-080, N-(3,4-Dimethoxybenzyl)-N-methyl-8-(4-(hydroxymethyl)phenyl)-9H-purin-6-amine]	5.7 ± 0.3 nM
CN(Cc1cccc(C(F)(F)F)c1)c1ncnc2[nH]c(-c3ccc(CO)cc3)nc12 [TIA03-108, N-Methyl-N-(3-trifluoromethylbenzyl)-8-(4-(hydroxymethyl)phenyl)-9H-purin-6-amine]	11 ± 2 nM
Cc1ccccc1CN(C)c1ncnc2[nH]c(-c3ccc(CO)cc3)nc12 [TIA03-136, N-Methyl-N-(2-methylbenzyl)-8-(4-(hydroxymethyl)phenyl)-9H-purin-6-amine]	1.8 nM
CN(CC1CCCCC1)c1ncnc2[nH]c(C3=CCCCC3)nc12 [TIA03-186, 8-(Cyclohex-1-en-1-yl)-N-(cyclohexylmethyl)-N-methyl-9H-purin-6-amine]	0.7 ± 0.2 nM
CN(CC1CCN(Cc2ccccc2)CC1)c1ncnc2[nH]c(-c3ccc(CO)cc3)nc12 [TIA04-053, N-Methyl-N-(1-benzylpiperidin-4-ylmethyl)-8-(4-(hydroxymethyl)phenyl)-9H-purin-6-amine]	130 ± 12 nM
CN(Cc1ccccc1)c1ncnc2[nH]ccc12 [TIA04-067, N-Benzyl-N-methyl-7H-pyrrolo[2,3-d]pyrimidin-4-amine]	68 ± 2 nM
Cc1cccc(CN(C)c2ncnc3[nH]ccc23)c1 [TIA04-069, N-Methyl-N-(3-methylbenzyl)-7H-pyrrolo[2,3-d]pyrimidin-4-amine]	35 nM
NC1NC=Nc2[nH]c(-c3ccc(CO)cc3)cc21 (centres unmarked) [TIA05-102]	85 nM
OCc1ccc(-c2cc3c(N4CCCC4c4ccccc4)ncnc3[nH]2)cc1 (centres unmarked) [TIA05-178, (4-(4-(2-Phenylpyrrolidin-1-yl)-7H-pyrrolo[2,3-d]pyrimidin-6-yl)phenyl)methanol]	0.7 ± 0.1 nM
CN(Cc1ccccc1)c1ncnc2[nH]cnc12 [TIA008, N-Benzyl-N-methyl-9H-purin-6-amine]	108 ± 7 nM
CN(Cc1ccccc1)c1ncnc2[nH]c(-c3ccccc3)nc12 [TIA072, N-Benzyl-N-methyl-8-phenyl-9H-purin-6-amine]	0.7 ± 0.1 nM
CN(Cc1ccccc1)c1ncnc2[nH]c(-c3ccccc3O)nc12 [TIA073, 2-(6-(Benzyl(methyl)amino)-9H-purin-8-yl)phenol]	3.4 ± 0.2 nM
OCc1ccc(-c2nc3c(NCc4ccccc4)ncnc3[nH]2)cc1 [TIA098, (4-(6-(Benzylamino)-9H-purin-8-yl)phenyl)methanol]	43 ± 6 nM
c1ccc(CNc2ncnc3[nH]c(-c4ccccc4)nc23)cc1 [TIA099, N-Benzyl-8-phenyl-9H-purin-6-amine]	85 ± 10 nM
